Results as given in paper PMC8003416, “Modulation of Human Phenylalanine Hydroxylase by 3-Hydroxyquinolin-2(1H)-One Derivatives” (Biomolecules, 2021).
Several values for one entry are separate records, joined by “and”; a condition that tells them apart may be missing. Equal entries are not always repeated.

Tests used:
[1] = molecular target: T1, human phenylalanine hydroxylase (hPAH) (Homo sapiens, UniProt P00439); assay: Small-angle X-ray scattering of hPAH; conditions: 200 μM in buffer/2% DMSO
T1 construct: Recombinant full-length wild-type (WT) hPAH was expressed in E. coli Top10 cells in fusion with a hexa-histidyl peptide; made in house; host or cells: E. coli Top10
T1 sequence (P00439 1-452): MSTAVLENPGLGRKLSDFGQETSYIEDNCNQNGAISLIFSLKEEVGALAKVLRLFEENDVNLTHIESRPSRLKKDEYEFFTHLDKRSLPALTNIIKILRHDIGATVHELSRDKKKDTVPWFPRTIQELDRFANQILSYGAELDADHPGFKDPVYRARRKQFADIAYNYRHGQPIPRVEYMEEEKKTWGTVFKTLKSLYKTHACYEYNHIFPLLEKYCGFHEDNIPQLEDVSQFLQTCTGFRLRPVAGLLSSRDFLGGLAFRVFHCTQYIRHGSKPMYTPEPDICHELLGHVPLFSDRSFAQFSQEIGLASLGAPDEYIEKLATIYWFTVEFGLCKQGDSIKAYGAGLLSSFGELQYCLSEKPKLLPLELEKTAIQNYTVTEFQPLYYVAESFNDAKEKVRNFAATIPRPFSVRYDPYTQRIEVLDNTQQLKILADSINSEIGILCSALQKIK
Method: Small-angle X-ray scattering experiments were performed at the Diamond Light Source B21 [30] beamline at a wavelength of 0.95 Å. Tetrameric hPAH was thawed on ice, centrifuged at 12,000× g for 8 min at 4 °C, and quantitated using a NanoDrop (molar extinction coefficient: 10.09 mg/mL/cm) prior to data acquisition. Measurements were performed in static mode with the automated sample changer at 20 °C using a protein concentration of 86 μM (monomer) in 20 mM Na-HEPES, 200 mM NaCl, pH 7.0 in the absence or presence of 2% DMSO. L-Phe and compound 9 were tested at a final concentration of 200 μM in 2% DMSO. Data were recorded using a Pilatus 2M detector covering a momentum transfer 0.0031 < s < 0.380 Å-1 (s = 4π sin θ/λ, where 2θ is the scattering angle). The data were processed and analyzed using the ATSAS program suite. The sample frames were monitored for radiation damage, the selected frames were averaged, and the buffer contribution was subtracted using PRIMUS [32]. The radius of gyration (Rg) and the maximum particle dimension (Dmax) were estimated from the Guinier approximation using PRIMUS and from the pair-distribution function P(r) using the GNOM package, respectively. Fitting of the experimental curves and the theoretical curves computed from SASBDB models was performed using CRYSOL [31].

[2] = molecular target: T1, human phenylalanine hydroxylase (hPAH); set-up: method as in PMID 12379147, PMID 15060071; conditions: ref [24],[25]; read-out: KD of L-Phe, previously reported SPR values; cited from earlier work

SMILES | Dmax of hPAH [1] | MM of hPAH (MM = VP/1.6) [1] | Rg^Guinier of hPAH [1] | Rg^P(r) of hPAH [1] | VP (excluded particle volume) of hPAH [1] | Kd [2]
COC(=O)CC[C@H](NC(=O)c1c(O)c(=O)[nH]c2ccc(OC(F)(F)F)cc12)C(=O)OC [Compound 9] | 189 Å | 268 kDa | 52.14 ± 0.07 Å | 52.00 ± 0.05 Å | 428,899 Å^3 | 
N[C@@H](Cc1ccccc1)C(=O)O [L-Phe, L-phenylalanine, reference compound] | 179 Å | 393 kDa | 52.73 ± 0.07 Å |  | 629,301 Å^3 | 97 µM and 136 µM
